≈ marks a conversion by molar mass, not a printed value.
Tests used:
Staphylococcus aureus [1] = experiment: Antibacterial activity against Staphylococcus aureus MTCC 96 at 100 ug/disc by paper disc diffusion technique; type: functional; settings: read-out: IZ
Salmonella typhi [2] = experiment: Antibacterial activity against Salmonella typhi MTCC 733 at 100 ug/disc by paper disc diffusion technique; type: functional, Salmonella enterica subsp. enterica serovar Typhi; settings: Salmonella enterica, read-out: IZ
Bacillus cereus [3] = experiment: Antibacterial activity against Bacillus cereus MTCC 430 at 100 ug/disc by paper disc diffusion technique; type: functional; settings: read-out: IZ
Pseudomonas aeruginosa [4] = experiment: Antibacterial activity against Pseudomonas aeruginosa MTCC 741 at 100 ug/disc by paper disc diffusion technique; type: functional; settings: read-out: IZ
Proteus vulgaris [5] = experiment: Antibacterial activity against Proteus vulgaris MTCC 1771 by agar streak dilution method; type: functional
Klebsiella pneumoniae [6] = experiment: Antibacterial activity against Klebsiella pneumoniae MTCC 109 by agar streak dilution method; type: functional
Staphylococcus aureus [7] = experiment: Antibacterial activity against Staphylococcus aureus MTCC 96 by agar streak dilution method; type: functional
Proteus vulgaris [8] = experiment: Antibacterial activity against Proteus vulgaris MTCC 1771 at 100 ug/disc by paper disc diffusion technique; type: functional; settings: read-out: IZ
[9] = system: Mycobacterium tuberculosis; experiment: Antituberculosis activity against Mycobacterium tuberculosis H37Rv at 6.25 ug/ml by Lowenstein-Jensen method; type: functional
[10] = system: Mycobacterium tuberculosis; experiment: Antituberculosis activity against Mycobacterium tuberculosis H37Rv by Lowenstein-Jensen method; type: functional
Aspergillus clavatus [11] = experiment: Antifungal activity against Aspergillus clavatus MTCC 1323 at 100 ug/disc by paper disc diffusion technique; type: functional; settings: read-out: IZ
Salmonella typhi [12] = experiment: Antibacterial activity against Salmonella typhi MTCC 733 by agar streak dilution method; type: functional, Salmonella enterica subsp. enterica serovar Typhi; settings: Salmonella enterica
[13] = system: Mycobacterium tuberculosis; experiment: Antituberculosis activity against Mycobacterium tuberculosis H37Rv by BACTEC MGIT method; type: functional
Aspergillus niger [14] = experiment: Antifungal activity against Aspergillus niger MTCC 282 by agar streak dilution method; type: functional
Candida albicans [15] = experiment: Antifungal activity against Candida albicans MTCC 183 at 100 ug/disc by paper disc diffusion technique; type: functional; settings: read-out: IZ
Klebsiella pneumoniae [16] = experiment: Antibacterial activity against Klebsiella pneumoniae MTCC 109 at 100 ug/disc by paper disc diffusion technique; type: functional; settings: read-out: IZ
[17] = Lipophilicity, log P of the compound; type: physicochemical; settings: octanol/water
Shigella flexneri [18] = experiment: Antibacterial activity against Shigella flexneri MTCC 1457 at 100 ug/disc by paper disc diffusion technique; type: functional; settings: read-out: IZ
Aspergillus fumigatus [19] = experiment: Antifungal activity against Aspergillus fumigatus MTCC 343 by agar streak dilution method; type: functional
Aspergillus niger [20] = experiment: Antifungal activity against Aspergillus niger MTCC 282 at 100 ug/disc by paper disc diffusion technique; type: functional; settings: read-out: IZ
Shigella flexneri [21] = experiment: Antibacterial activity against Shigella flexneri MTCC 1457 by agar streak dilution method; type: functional
Aspergillus clavatus [22] = experiment: Antifungal activity against Aspergillus clavatus MTCC 1323 by agar streak dilution method; type: functional
Escherichia coli [23] = experiment: Antibacterial activity against Escherichia coli MTCC 739 by agar streak dilution method; type: functional
Bacillus cereus [24] = experiment: Antibacterial activity against Bacillus cereus MTCC 430 by agar streak dilution method; type: functional
Candida albicans [25] = experiment: Antifungal activity against Candida albicans MTCC 183 by agar streak dilution method; type: functional
Escherichia coli [26] = experiment: Antibacterial activity against Escherichia coli MTCC 739 at 100 ug/disc by paper disc diffusion technique; type: functional; settings: read-out: IZ
Aspergillus fumigatus [27] = experiment: Antifungal activity against Aspergillus fumigatus MTCC 343 at 100 ug/disc by paper disc diffusion technique; type: functional; settings: read-out: IZ
Pseudomonas aeruginosa [28] = experiment: Antibacterial activity against Pseudomonas aeruginosa MTCC 741 by agar streak dilution method; type: functional
[29] = system: Mycobacterium tuberculosis; experiment: Antituberculosis activity against Mycobacterium tuberculosis H37Rv at 6.25 ug/ml by BACTEC MGIT method; type: functional

## CC(=O)Nc1ccc2nc(NC(=O)CSc3nnc(Cn4cnc5ccccc54)o3)sc2c1
Staphylococcus aureus [1]
  zone of inhibition at 100 µg/disc: 19 mm
Salmonella typhi [2]
  zone of inhibition at 100 µg/disc: 16 mm
Bacillus cereus [3]
  zone of inhibition at 100 µg/disc: 16 mm
Pseudomonas aeruginosa [4]
  zone of inhibition at 100 µg/disc: < 10 mm
Proteus vulgaris [5]
  MIC: 12.5 µg/mL (≈ 26.1 µM)
Klebsiella pneumoniae [6]
  MIC: 50 µg/mL (≈ 104 µM)
Staphylococcus aureus [7]
  MIC: 50 µg/mL (≈ 104 µM)
Proteus vulgaris [8]
  zone of inhibition at 100 µg/disc: 24 mm
[9]
  inhibition at 6.25 µg/mL: 98%
[10]
  MIC: 50 µg/mL (≈ 104 µM)
Aspergillus clavatus [11]
  zone of inhibition at 100 µg/disc: 23 mm
Salmonella typhi [12]
  MIC: 100 µg/mL (≈ 209 µM)
[13]
  MIC: > 6.25 µg/mL
Aspergillus niger [14]
  MIC: 12.5 µg/mL (≈ 26.1 µM)
Candida albicans [15]
  zone of inhibition at 100 µg/disc: 23 mm
Klebsiella pneumoniae [16]
  zone of inhibition at 100 µg/disc: 20 mm
[17]
  logP: 2.6
Shigella flexneri [18]
  zone of inhibition at 100 µg/disc: 16 mm
Aspergillus fumigatus [19]
  MIC: 100 µg/mL (≈ 209 µM)
Aspergillus niger [20]
  zone of inhibition at 100 µg/disc: 24 mm
Shigella flexneri [21]
  MIC: 100 µg/mL (≈ 209 µM)
Aspergillus clavatus [22]
  MIC: 50 µg/mL (≈ 104 µM)
Escherichia coli [23]
  MIC: 50 µg/mL (≈ 104 µM)
Bacillus cereus [24]
  MIC: 100 µg/mL (≈ 209 µM)
Candida albicans [25]
  MIC: 50 µg/mL (≈ 104 µM)
Escherichia coli [26]
  zone of inhibition at 100 µg/disc: 20 mm
Aspergillus fumigatus [27]
  zone of inhibition at 100 µg/disc: < 10 mm
Pseudomonas aeruginosa [28]
  MIC: 100 µg/mL (≈ 209 µM)

## CC[C@@H](CO)NCCN[C@@H](CC)CO [ETHAMBUTOL]
[13]
  MIC: 3.12 µg/mL (≈ 15.3 µM)
[29]
  inhibition at 6.25 µg/mL: 99%

## NC(=O)c1cnccn1 [PYRAZINAMIDE]
[13]
  MIC: 6.25 µg/mL (≈ 50.8 µM)
[29]
  inhibition at 6.25 µg/mL: 99%

## CO[C@H]1/C=C/O[C@@]2(C)Oc3c(C)c(O)c4c(O)c(c(/C=N/N5CCN(C)CC5)c(O)c4c3C2=O)NC(=O)/C(C)=C\C=C\[C@H](C)[C@H](O)[C@@H](C)[C@@H](O)[C@@H](C)[C@H](OC(C)=O)[C@@H]1C [RIFAMPIN]
[13]
  MIC: 0.25 µg/mL (≈ 0.304 µM)
[29]
  inhibition at 6.25 µg/mL: 99%

Source: ChEMBL document CHEMBL2034905, “Synthesis of benzimidazolyl-1,3,4-oxadiazol-2ylthio-N-phenyl (benzothiazolyl) acetamides as antibacterial, antifungal and antituberculosis agents” (Eur J Med Chem, 2012)
